Measured values: PubChem BioAssay AID220 (DTP/NCI, 2004)
Results filed as inconclusive are left out.

Test system: CD8F1 mice, subcutaneous mammary adenocarcinoma, T/C%
Assay: NCI In Vivo Anticancer Drug Screen. Data for tumor model Mammary Adenocarcinoma CD8F1 (subcutaneous) in CD8F1
Conditions: higher = larger tumour
How it was run: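 Mice carrying transplanted tumors received test compound, and survival or tumor size was recorded. Each value is the treated-group measurement divided by the corresponding measurement in vehicle-dosed controls.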

[1] = endpoint: median tumor weight (est.), dose: 12.5 mg/kg/injection, schedule: Q07DX005 (ip), vehicle: saline
[2] = endpoint: median tumor weight (est.), dose: 25.0 mg/kg/injection, schedule: Q07DX005 (ip), vehicle: saline

How did the T/C (endpoint: median tumor weight (est.), dose: 50.0 mg/kg/injection, schedule: Q07DX005 (ip), vehicle: saline with Tween-80) turn out when `Cc1ccccc1SSc1ccccc1C` was run?
Its T/C is 159 % of control.

What about the T/C (endpoint: median tumor weight (est.), dose: 100.0 mg/kg/injection, schedule: Q07DX005 (ip), vehicle: saline with Tween-80) of the same compound?
The T/C was 123 % of control.

What about the T/C (endpoint: median tumor weight (est.), dose: 200.0 mg/kg/injection, schedule: Q07DX005 (ip), vehicle: saline with Tween-80) of the same compound?
Its T/C is 179 % of control.

`Nc1nc(-c2ccccc2)c(Br)c(=O)[nH]1` was tested. Which T/C (endpoint: median tumor weight change, dose: 125.0 mg/kg/injection, schedule: Q01DX001 (ip), vehicle: saline with Tween-80) did it give?
The T/C was 115 % of control.

And the T/C (endpoint: median tumor weight change, dose: 250.0 mg/kg/injection, schedule: Q01DX001 (ip), vehicle: saline with Tween-80)?
Its T/C is 96 % of control.

What about the T/C (endpoint: median tumor weight change, dose: 500.0 mg/kg/injection, schedule: Q01DX001 (ip), vehicle: saline with Tween-80) of the same compound?
The T/C was 93 % of control.

And the T/C (endpoint: median tumor weight change, dose: 1000.0 mg/kg/injection, schedule: Q01DX001 (ip), vehicle: saline with Tween-80)?
Its T/C is 98 % of control.

Which results are given for `NC(=S)c1cn(C2OC(CO)C(O)C2O)c2ncnc(N)c12` (centres undefined)?
T/C (endpoint: median tumor weight change, dose: 3.12 mg/kg/injection, schedule: Q01DX001 (ip), vehicle: suspension in saline): 96 % of control; T/C (endpoint: median tumor weight change, dose: 6.25 mg/kg/injection, schedule: Q01DX001 (ip), vehicle: suspension in saline): 68 % of control; T/C (endpoint: median tumor weight change, dose: 12.5 mg/kg/injection, schedule: Q01DX001 (ip), vehicle: suspension in saline): 76 % of control

Which results are given for `CCN(CC)CCNc1ccc(CO)c2sc3ccccc3c(=O)c12`?
T/C (endpoint: median tumor weight (est.), dose: 6.25 mg/kg/injection, schedule: Q07DX005 (ip), vehicle: water): 62 % of control; T/C (endpoint: median tumor weight (est.), dose: 12.5 mg/kg/injection, schedule: Q07DX005 (ip), vehicle: clinical formulation): 120 % of control; T/C (endpoint: median tumor weight (est.), dose: 12.5 mg/kg/injection, schedule: Q07DX005 (ip), vehicle: water): 67 % of control; T/C (endpoint: median tumor weight (est.), dose: 25.0 mg/kg/injection, schedule: Q07DX005 (ip), vehicle: clinical formulation): 82 % of control; T/C (endpoint: median tumor weight (est.), dose: 25.0 mg/kg/injection, schedule: Q07DX005 (ip), vehicle: water): 51 % of control; T/C (endpoint: median tumor weight (est.), dose: 50.0 mg/kg/injection, schedule: Q07DX005 (ip), vehicle: clinical formulation): 53 % of control; T/C (endpoint: median tumor weight (est.), dose: 50.0 mg/kg/injection, schedule: Q07DX005 (ip), vehicle: water): 39 % of control; T/C (endpoint: median tumor weight (est.), dose: 100.0 mg/kg/injection, schedule: Q07DX005 (ip), vehicle: clinical formulation): 17 % of control; T/C (endpoint: median tumor weight (est.), dose: 100.0 mg/kg/injection, schedule: Q07DX005 (ip), vehicle: water): 3 % of control

Which results are given for `O=c1ssc(=Nc2ccccc2)n1-c1ccccc1`?
T/C (endpoint: median tumor weight (est.), dose: 25.0 mg/kg/injection, schedule: Q07DX005 (ip), vehicle: Klucel (hydroxypropylcellulose) (HPC)): 119 % of control; T/C (endpoint: median tumor weight (est.), dose: 50.0 mg/kg/injection, schedule: Q07DX005 (ip), vehicle: Klucel (hydroxypropylcellulose) (HPC)): 90 % of control; T/C (endpoint: median tumor weight (est.), dose: 100.0 mg/kg/injection, schedule: Q07DX005 (ip), vehicle: Klucel (hydroxypropylcellulose) (HPC)): 70 % of control; T/C (endpoint: median tumor weight (est.), dose: 200.0 mg/kg/injection, schedule: Q07DX005 (ip), vehicle: Klucel (hydroxypropylcellulose) (HPC)): 65 % of control; T/C (endpoint: median tumor weight (est.), dose: 400.0 mg/kg/injection, schedule: Q07DX005 (ip), vehicle: Klucel (hydroxypropylcellulose) (HPC)): 69 % of control

With `C#CCNC1=C(C)C(=O)C2=C(C1=O)[C@H](COC(N)=O)[C@]1(OC)[C@@H]3N[C@@H]3CN21` as the compound, how does the T/C (endpoint: median tumor weight change, dose: 16.0 mg/kg/injection, schedule: Q01DX001 (ip), vehicle: distilled water + Tween-80) read?
Its T/C is 75 % of control.

What about the T/C (endpoint: median tumor weight change, dose: 31.0 mg/kg/injection, schedule: Q01DX001 (ip), vehicle: distilled water + Tween-80) of the same compound?
The T/C was 27 % of control.

What does the source list for `C(CSC1=NCCN1)CSC1=NCCN1`?
T/C [1]: 98 % of control; T/C [2]: 103 % of control; T/C (endpoint: median tumor weight (est.), dose: 50.0 mg/kg/injection, schedule: Q07DX005 (ip), vehicle: saline): 76 % of control; T/C (endpoint: median tumor weight (est.), dose: 100.0 mg/kg/injection, schedule: Q07DX005 (ip), vehicle: saline): 102 % of control; T/C (endpoint: median tumor weight (est.), dose: 200.0 mg/kg/injection, schedule: Q07DX005 (ip), vehicle: saline): 69 % of control

For `C1CN(P2(N3CC3)=NP(N3CC3)(N3CC3)=NP(N3CC3)(N3CC3)=N2)CCO1` (centres undefined), which T/C (endpoint: median tumor weight (est.), dose: 6.25 mg/kg/injection, schedule: Q07DX005 (ip), vehicle: saline) is on record?
Its T/C is 39 % of control.

And the T/C [1]?
Its T/C is 44 % of control.

What about the T/C [2] of the same compound?
The T/C was 6 % of control.
